According to paper PMC4854315, “Discovery of a novel allosteric inhibitor-binding site in ERK5: comparison with the canonical kinase hinge ATP-binding site” (Acta Crystallographica. Section D, Structural Biology, 2016):

Legend:
Assay in all cases: Z'-LYTE kinase panel
Format in all cases: biochemical
[1] = target: T1, MAP3K8 (COT) (Homo sapiens, UniProt P41279); details: 10 µM compound; ATP 100
T1 construct: purchased ThermoFisher (SelectScreen, Z'-LYTE)
Method in brief: (§1)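 Activity is reported as percent inhibition at one concentration, 10 µM, determined by the standard Z′-LYTE kinase assay across 225 panel kinases.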

[2] = target: T2, PRKCI (PKC iota) (Homo sapiens, UniProt P41743)
T2 construct: purchased ThermoFisher (SelectScreen, Z'-LYTE)
T2 sequence (P41743 1-596): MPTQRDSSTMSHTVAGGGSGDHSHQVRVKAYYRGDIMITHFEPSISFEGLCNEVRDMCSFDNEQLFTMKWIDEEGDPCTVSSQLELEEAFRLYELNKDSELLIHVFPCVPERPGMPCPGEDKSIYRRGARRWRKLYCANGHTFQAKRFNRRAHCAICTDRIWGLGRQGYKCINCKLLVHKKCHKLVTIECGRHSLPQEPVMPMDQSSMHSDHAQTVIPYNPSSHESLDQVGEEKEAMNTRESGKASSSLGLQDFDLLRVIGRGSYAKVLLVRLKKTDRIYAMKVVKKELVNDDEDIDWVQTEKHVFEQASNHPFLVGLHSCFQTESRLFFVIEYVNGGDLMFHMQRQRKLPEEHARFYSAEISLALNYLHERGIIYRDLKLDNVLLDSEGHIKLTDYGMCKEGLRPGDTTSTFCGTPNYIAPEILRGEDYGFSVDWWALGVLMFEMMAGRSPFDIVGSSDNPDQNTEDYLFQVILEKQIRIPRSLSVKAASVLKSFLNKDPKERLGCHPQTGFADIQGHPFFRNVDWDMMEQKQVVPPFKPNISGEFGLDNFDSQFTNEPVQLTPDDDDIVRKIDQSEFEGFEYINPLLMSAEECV
Method in brief: as §1

[3] = target: T3, PAK4 (Homo sapiens, UniProt O96013)
T3 construct: purchased ThermoFisher (SelectScreen, Z'-LYTE)
Method in brief: as §1

[4] = target: T4, PAK6 (Homo sapiens, UniProt Q9NQU5)
T4 construct: purchased ThermoFisher (SelectScreen, Z'-LYTE)
Method in brief: as §1

[5] = target: T5, LYN A (Homo sapiens, UniProt P07948)
T5 construct: purchased ThermoFisher (SelectScreen, Z'-LYTE)
Method in brief: as §1

[6] = target: T6, MARK4 (Homo sapiens, UniProt Q96L34)
T6 construct: purchased ThermoFisher (SelectScreen, Z'-LYTE)
T6 sequence (Q96L34 1-752): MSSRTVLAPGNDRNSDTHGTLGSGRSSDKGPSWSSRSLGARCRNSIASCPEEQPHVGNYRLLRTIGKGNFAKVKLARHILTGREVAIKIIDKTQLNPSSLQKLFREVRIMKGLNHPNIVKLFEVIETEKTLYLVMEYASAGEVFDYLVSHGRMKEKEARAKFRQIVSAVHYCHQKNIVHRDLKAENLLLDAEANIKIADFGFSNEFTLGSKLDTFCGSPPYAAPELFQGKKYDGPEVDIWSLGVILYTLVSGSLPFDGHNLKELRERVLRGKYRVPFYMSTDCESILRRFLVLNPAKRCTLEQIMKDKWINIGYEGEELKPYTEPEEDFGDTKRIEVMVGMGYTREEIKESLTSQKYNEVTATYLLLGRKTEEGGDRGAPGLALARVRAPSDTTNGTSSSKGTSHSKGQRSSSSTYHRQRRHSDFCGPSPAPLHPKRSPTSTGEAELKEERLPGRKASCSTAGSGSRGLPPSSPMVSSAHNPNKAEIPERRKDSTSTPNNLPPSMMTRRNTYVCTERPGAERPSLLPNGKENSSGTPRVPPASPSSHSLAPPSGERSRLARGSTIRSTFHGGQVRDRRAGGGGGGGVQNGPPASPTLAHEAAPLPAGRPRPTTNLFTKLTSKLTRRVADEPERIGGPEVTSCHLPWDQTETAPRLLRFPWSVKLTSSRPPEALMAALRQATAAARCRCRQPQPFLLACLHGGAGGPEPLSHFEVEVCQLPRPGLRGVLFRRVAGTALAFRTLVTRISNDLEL
Method in brief: as §1

[7] = target: T7, MAPK13 (p38 delta) (Homo sapiens, UniProt O15264)
T7 construct: purchased ThermoFisher (SelectScreen, Z'-LYTE)
T7 sequence (O15264 1-365): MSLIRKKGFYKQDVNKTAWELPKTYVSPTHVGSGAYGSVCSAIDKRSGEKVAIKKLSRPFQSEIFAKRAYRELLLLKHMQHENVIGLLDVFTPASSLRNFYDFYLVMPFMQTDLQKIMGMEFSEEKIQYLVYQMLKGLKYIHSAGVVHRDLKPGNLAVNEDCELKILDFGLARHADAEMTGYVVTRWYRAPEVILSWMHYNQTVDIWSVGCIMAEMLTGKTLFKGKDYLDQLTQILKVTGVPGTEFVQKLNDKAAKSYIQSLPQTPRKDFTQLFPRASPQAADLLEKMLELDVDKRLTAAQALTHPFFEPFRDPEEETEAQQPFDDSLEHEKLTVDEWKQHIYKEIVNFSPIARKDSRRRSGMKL
Method in brief: as §1

[8] = target: T8, TXK (Homo sapiens, UniProt P42681)
T8 construct: purchased ThermoFisher (SelectScreen, Z'-LYTE)
T8 sequence (P42681 1-527): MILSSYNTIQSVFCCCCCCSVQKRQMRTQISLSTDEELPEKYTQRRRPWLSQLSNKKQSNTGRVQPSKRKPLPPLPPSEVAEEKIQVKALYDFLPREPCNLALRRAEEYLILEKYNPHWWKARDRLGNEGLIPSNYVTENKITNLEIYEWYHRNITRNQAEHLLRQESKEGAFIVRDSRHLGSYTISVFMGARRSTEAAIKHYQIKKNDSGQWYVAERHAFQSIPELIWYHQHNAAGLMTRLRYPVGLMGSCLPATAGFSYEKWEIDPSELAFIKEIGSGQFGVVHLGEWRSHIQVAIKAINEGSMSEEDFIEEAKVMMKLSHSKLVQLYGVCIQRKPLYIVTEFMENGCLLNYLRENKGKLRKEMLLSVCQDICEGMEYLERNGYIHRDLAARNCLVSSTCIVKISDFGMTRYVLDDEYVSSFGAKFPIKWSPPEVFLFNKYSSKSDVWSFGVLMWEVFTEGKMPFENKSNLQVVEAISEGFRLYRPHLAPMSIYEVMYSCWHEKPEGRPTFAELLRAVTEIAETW
Method in brief: as §1

T3 sequence (O96013 whole entry): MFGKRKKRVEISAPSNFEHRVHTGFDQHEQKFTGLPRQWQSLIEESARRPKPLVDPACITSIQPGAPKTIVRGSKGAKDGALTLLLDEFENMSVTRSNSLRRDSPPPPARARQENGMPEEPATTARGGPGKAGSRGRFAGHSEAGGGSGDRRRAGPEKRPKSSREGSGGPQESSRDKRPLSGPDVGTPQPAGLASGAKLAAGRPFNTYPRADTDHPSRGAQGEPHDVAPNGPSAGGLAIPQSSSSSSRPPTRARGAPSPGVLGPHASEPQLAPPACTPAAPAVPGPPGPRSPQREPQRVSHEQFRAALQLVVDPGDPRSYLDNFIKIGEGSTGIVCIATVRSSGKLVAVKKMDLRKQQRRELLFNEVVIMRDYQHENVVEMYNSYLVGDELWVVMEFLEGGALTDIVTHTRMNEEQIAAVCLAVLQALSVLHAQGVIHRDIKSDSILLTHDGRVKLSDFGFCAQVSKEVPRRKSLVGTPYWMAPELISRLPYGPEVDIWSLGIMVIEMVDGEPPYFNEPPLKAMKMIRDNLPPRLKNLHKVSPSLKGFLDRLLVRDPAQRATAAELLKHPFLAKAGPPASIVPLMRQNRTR
T5 sequence (P07948 whole entry): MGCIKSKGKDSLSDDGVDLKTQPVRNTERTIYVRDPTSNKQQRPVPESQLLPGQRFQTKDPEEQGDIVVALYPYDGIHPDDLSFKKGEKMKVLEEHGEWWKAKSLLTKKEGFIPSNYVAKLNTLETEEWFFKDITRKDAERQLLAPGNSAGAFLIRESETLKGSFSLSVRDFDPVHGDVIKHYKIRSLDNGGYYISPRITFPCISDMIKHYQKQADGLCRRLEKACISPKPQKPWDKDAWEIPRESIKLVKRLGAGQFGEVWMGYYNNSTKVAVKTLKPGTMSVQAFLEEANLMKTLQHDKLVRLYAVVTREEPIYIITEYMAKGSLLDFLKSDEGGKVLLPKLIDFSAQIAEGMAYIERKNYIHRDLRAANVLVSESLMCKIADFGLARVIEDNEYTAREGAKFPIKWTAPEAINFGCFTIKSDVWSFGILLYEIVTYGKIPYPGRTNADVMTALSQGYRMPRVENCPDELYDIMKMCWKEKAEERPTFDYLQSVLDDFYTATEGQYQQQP
T1 sequence (P41279 whole entry): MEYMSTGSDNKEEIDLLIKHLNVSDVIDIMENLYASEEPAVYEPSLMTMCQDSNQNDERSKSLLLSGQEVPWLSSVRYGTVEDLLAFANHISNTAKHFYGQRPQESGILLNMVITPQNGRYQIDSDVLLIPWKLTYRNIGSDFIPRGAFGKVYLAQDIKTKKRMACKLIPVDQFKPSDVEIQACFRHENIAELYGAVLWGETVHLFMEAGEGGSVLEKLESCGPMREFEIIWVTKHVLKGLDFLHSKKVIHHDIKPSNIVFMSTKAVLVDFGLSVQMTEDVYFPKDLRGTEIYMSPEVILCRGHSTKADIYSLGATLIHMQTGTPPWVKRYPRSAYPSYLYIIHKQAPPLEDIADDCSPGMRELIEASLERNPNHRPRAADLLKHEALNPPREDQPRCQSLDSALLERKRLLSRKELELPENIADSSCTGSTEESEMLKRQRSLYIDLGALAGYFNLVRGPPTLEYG
T4 sequence (Q9NQU5 whole entry): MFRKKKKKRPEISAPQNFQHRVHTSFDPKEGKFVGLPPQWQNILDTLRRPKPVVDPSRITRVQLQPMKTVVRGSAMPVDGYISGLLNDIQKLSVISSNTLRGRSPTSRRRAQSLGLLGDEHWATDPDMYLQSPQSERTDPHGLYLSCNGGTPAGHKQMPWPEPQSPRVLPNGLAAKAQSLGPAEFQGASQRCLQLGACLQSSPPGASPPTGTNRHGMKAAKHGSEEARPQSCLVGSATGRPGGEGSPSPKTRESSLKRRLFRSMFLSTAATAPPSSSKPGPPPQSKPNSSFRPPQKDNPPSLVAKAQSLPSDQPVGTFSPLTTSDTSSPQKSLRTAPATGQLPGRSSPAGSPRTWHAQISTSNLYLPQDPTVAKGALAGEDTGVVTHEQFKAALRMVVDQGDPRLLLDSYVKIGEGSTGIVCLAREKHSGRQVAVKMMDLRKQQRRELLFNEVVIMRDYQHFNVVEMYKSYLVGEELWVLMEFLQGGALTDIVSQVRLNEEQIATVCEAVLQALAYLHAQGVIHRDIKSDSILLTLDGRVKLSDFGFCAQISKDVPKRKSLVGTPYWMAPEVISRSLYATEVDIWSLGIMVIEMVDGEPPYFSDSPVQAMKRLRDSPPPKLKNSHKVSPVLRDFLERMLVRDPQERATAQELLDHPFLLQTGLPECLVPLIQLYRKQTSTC

Cc1ncc(-c2nc(Nc3ccc(C(=O)NCCN4CCCCC4)cc3)ncc2F)n1C(C)C [Compound 3]
inhibition at 10 µM [1]: 89%
inhibition at 10 µM [2]: 5.66%
inhibition at 10 µM [3]: 81%
inhibition at 10 µM [4]: 27%
inhibition at 10 µM [5]: 88%
inhibition at 10 µM [6]: 62%
inhibition at 10 µM [7]: 65%
inhibition at 10 µM [8]: 40%

Cc1cc(Nc2nc(N)nn2C(=O)NC(C)C)ccc1Cl [Compound 5]
inhibition at 10 µM [1]: -2.72%
inhibition at 10 µM [2]: -6%
inhibition at 10 µM [3]: 41%
inhibition at 10 µM [4]: 14%
inhibition at 10 µM [5]: 25%
inhibition at 10 µM [6]: 2.34%
inhibition at 10 µM [7]: -0.07%
inhibition at 10 µM [8]: -9%

XMD8-92 [Compound 2, reference compound]
MAP3K8 (COT) % Inhibition [1]: 3.36%
PRKCI (PKC iota) % Inhibition ([2]; 10 µM compound, ATP Km app): 0.17%
PAK4 % Inhibition ([3]; 10 µM compound, ATP Km app): 26%
PAK6 % Inhibition ([4]; 10 µM compound, ATP Km app): 33%
LYN A % Inhibition ([5]; 10 µM compound, ATP Km app): 66%
MARK4 % Inhibition ([6]; 10 µM compound, ATP Km app): 37%
MAPK13 (p38 delta) % Inhibition ([7]; 10 µM compound, ATP Km app): 1.54%
TXK % Inhibition ([8]; 10 µM compound, ATP Km app): 73%
